Measurements from ChEMBL document CHEMBL1132713, “Emerging molecular approaches to pain therapy” (J Med Chem, 1999).

What was measured:
[1] = target: Delta-type opioid receptor (Homo sapiens, UniProt P41143); assay: Opioid receptor delta 1 agonist activity was determined; format: functional
Proteasome = assay: Inhibitory activity against 26S proteasome degradation of IkB; format: subcellular

Chain of Delta-type opioid receptor (P41143 whole entry): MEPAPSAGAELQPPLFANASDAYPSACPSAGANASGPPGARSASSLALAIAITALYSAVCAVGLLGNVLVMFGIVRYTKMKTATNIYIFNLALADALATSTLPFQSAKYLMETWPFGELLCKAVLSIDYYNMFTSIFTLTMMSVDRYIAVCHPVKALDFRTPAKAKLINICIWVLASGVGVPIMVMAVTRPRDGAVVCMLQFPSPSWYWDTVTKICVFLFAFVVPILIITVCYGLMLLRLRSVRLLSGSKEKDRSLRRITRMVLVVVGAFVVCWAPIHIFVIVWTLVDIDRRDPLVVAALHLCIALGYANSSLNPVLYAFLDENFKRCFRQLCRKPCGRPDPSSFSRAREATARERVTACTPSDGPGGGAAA

| SMILES | Ki [1] | Ki (Proteasome) |
| --- | --- | --- |
| COc1ccc2c3c1OC1C4NC(C(=O)OCC(C)C)=C(C)C4CC4C(C2)N(C)CCC341 (configuration not stated) | 4.8 nM |  |
| CC(C)C[C@H](NC(=O)[C@@H](Cc1ccccc1)NC(=O)c1ccccc1)B(O)O |  | 0.6 nM |
